In ChEMBL document CHEMBL1148480, “Structure-activity studies of orexin a and orexin B at the human orexin 1 and orexin 2 receptors led to orexin 2 receptor selective and orexin 1 receptor preferring ligands” (J Med Chem, 2004) one finds Ratio data, which are given here for 14 compounds.

Residues, ends and D or L forms follow the SMILES beside them.

This assay in a line: Ratio of orexin-1 receptor to orexin-2 receptor in human.
Consider `CC[C@H](C)[C@H](NC(=O)CNC(=O)[C@H](C)NC(=O)[C@H](C)NC(=O)[C@H](Cc1c[nH]cn1)NC(=O)[C@H](CC(N)=O)NC(=O)CNC(=O)[C@H](C)NC(=O)CNC(=O)[C@H](Cc1c[nH]cn1)NC(=O)[C@H](CC(C)C)NC(=O)[C@H](CC(C)C)NC(=O)[C@H](CCC(=O)O)NC(=O)[C@H](Cc1ccc(O)cc1)NC(=O)[C@H](CC(C)C)NC(=O)[C@H](CCCN=C(N)N)NC(=O)[C@H](CSSC[C@H](NC(=O)[C@@H](N)CO)C(=O)N[C@@H](CCCN=C(N)N)C(=O)N[C@@H](CC(C)C)C(=O)N[C@@H](Cc1ccc(O)cc1)C(=O)N[C@@H](CCC(=O)O)C(=O)N[C@@H](CC(C)C)C(=O)N[C@@H](CC(C)C)C(=O)N[C@@H](Cc1c[nH]cn1)C(=O)NCC(=O)N[C@@H](C)C(=O)NCC(=O)N[C@@H](CC(N)=O)C(=O)N[C@@H](Cc1c[nH]cn1)C(=O)N[C@@H](C)C(=O)N[C@@H](C)C(=O)NCC(=O)N[C@H](C(=O)N[C@@H](CC(C)C)C(=O)N[C@H](C(=O)N[C@@H](CC(C)C)C(=O)O)[C@@H](C)O)[C@@H](C)CC)NC(=O)[C@@H](N)CO)C(=O)N[C@@H](CC(C)C)C(=O)N[C@H](C(=O)N[C@@H](CC(C)C)C(=O)O)[C@@H](C)O`, for which the Ratio amounted to 2.9.
In the case of `CC[C@H](C)[C@H](NC(=O)CNC(=O)[C@H](C)NC(=O)[C@H](C)NC(=O)[C@H](Cc1c[nH]cn1)NC(=O)[C@H](CC(N)=O)NC(=O)CNC(=O)[C@H](CO)NC(=O)[C@H](C)NC(=O)[C@H](CCC(N)=O)NC(=O)[C@H](CC(C)C)NC(=O)[C@H](CC(C)C)NC(=O)[C@H](CCCN=C(N)N)NC(=O)[C@H](CCC(N)=O)NC(=O)[C@H](CC(C)C)NC(=O)[C@H](CCCN=C(N)N)NC(=O)CNC(=O)[C@H](CCC(N)=O)NC(=O)[C@H](CC(C)C)NC(=O)[C@H](C)N)C(=O)N[C@@H](CC(C)C)C(=O)N[C@H](C(=O)N[C@@H](CCSC)C(=O)O)[C@@H](C)O` (H-ALQGRLQRLLQASGNHAAGILTM-OH) it was 5.5.
Turning to `CC[C@H](C)[C@H](NC(=O)CNC(=O)[C@H](C)NC(=O)[C@H](C)NC(=O)[C@H](Cc1c[nH]cn1)NC(=O)[C@H](CC(N)=O)NC(=O)CNC(=O)[C@H](CO)NC(=O)[C@H](C)NC(=O)[C@H](CCC(N)=O)NC(=O)[C@H](CC(C)C)NC(=O)[C@H](CC(C)C)NC(=O)[C@H](CCCN=C(N)N)NC(=O)[C@H](CCC(N)=O)NC(=O)[C@H](CC(C)C)NC(=O)[C@H](CCCN=C(N)N)NC(=O)CNC(=O)[C@H](C)NC(=O)[C@H](CC(C)C)NC(=O)CN)C(=O)N[C@@H](CC(C)C)C(=O)N[C@H](C(=O)N[C@@H](CCSC)C(=O)O)[C@@H](C)O` (H-GLAGRLQRLLQASGNHAAGILTM-OH), the Ratio amounted to 6.8.
In the case of `CC[C@H](C)[C@H](NC(=O)CNC(=O)[C@H](C)NC(=O)[C@H](C)NC(=O)[C@H](Cc1c[nH]cn1)NC(=O)[C@H](CC(N)=O)NC(=O)CNC(=O)[C@H](CO)NC(=O)[C@H](C)NC(=O)[C@H](CCC(N)=O)NC(=O)[C@H](C)NC(=O)[C@H](CC(C)C)NC(=O)[C@H](CCCN=C(N)N)NC(=O)[C@H](CCC(N)=O)NC(=O)[C@H](CC(C)C)NC(=O)[C@H](CCCN=C(N)N)NC(=O)CNC(=O)[C@H](CCC(N)=O)NC(=O)[C@H](CC(C)C)NC(=O)CN)C(=O)N[C@@H](CC(C)C)C(=O)N[C@H](C(=O)N[C@@H](CCSC)C(=O)O)[C@@H](C)O` (H-GLQGRLQRLAQASGNHAAGILTM-OH) it was more than 430; in that of `CC[C@H](C)[C@H](NC(=O)CNC(=O)[C@H](C)NC(=O)[C@H](C)NC(=O)[C@H](Cc1c[nH]cn1)NC(=O)[C@H](CC(N)=O)NC(=O)CNC(=O)[C@H](CO)NC(=O)[C@H](C)NC(=O)[C@H](C)NC(=O)[C@H](CC(C)C)NC(=O)[C@H](CC(C)C)NC(=O)[C@H](CCCN=C(N)N)NC(=O)[C@H](CCC(N)=O)NC(=O)[C@H](CC(C)C)NC(=O)[C@H](CCCN=C(N)N)NC(=O)CNC(=O)[C@H](CCC(N)=O)NC(=O)[C@H](CC(C)C)NC(=O)CN)C(=O)N[C@@H](CC(C)C)C(=O)N[C@H](C(=O)N[C@@H](CCSC)C(=O)O)[C@@H](C)O` (H-GLQGRLQRLLAASGNHAAGILTM-OH), 8.6; in that of `CC[C@H](C)[C@H](NC(=O)CNC(=O)[C@H](C)NC(=O)[C@H](C)NC(=O)[C@H](Cc1c[nH]cn1)NC(=O)[C@H](CC(N)=O)NC(=O)CNC(=O)[C@H](CO)NC(=O)[C@H](C)NC(=O)[C@H](CCC(N)=O)NC(=O)[C@H](CC(C)C)NC(=O)[C@H](CC(C)C)NC(=O)[C@H](CCCN=C(N)N)NC(=O)[C@H](CCC(N)=O)NC(=O)[C@H](CC(C)C)NC(=O)[C@H](CCCN=C(N)N)NC(=O)CNC(=O)[C@H](CCC(N)=O)NC(=O)[C@H](CC(C)C)NC(=O)CN)C(=O)N[C@@H](C)C(=O)N[C@H](C(=O)N[C@@H](CCSC)C(=O)O)[C@@H](C)O` (H-GLQGRLQRLLQASGNHAAGIATM-OH), more than 65.
Turning to `CC[C@H](C)[C@H](NC(=O)CNC(=O)[C@H](C)NC(=O)[C@H](C)NC(=O)[C@H](Cc1c[nH]cn1)NC(=O)[C@H](CC(N)=O)NC(=O)CNC(=O)[C@H](CO)NC(=O)[C@H](C)NC(=O)[C@H](CCC(N)=O)NC(=O)[C@H](CC(C)C)NC(=O)[C@H](CC(C)C)NC(=O)[C@H](CCCN=C(N)N)NC(=O)[C@H](CCC(N)=O)NC(=O)[C@H](CC(C)C)NC(=O)[C@H](CCCN=C(N)N)NC(=O)CNC(=O)[C@H](CCC(N)=O)NC(=O)[C@H](CC(C)C)NC(=O)CN)C(=O)N[C@@H](CC(C)C)C(=O)N1CCC[C@H]1C(=O)N[C@@H](CCSC)C(=O)O` (H-GLQGRLQRLLQASGNHAAGILPM-OH), the Ratio is more than 375.
For the compound `CC[C@H](C)[C@H](NC(=O)CNC(=O)[C@@H]1CCCN1C(=O)[C@H](C)NC(=O)[C@H](Cc1c[nH]cn1)NC(=O)[C@H](CC(N)=O)NC(=O)CNC(=O)[C@H](CO)NC(=O)[C@H](C)NC(=O)[C@H](CCC(N)=O)NC(=O)[C@H](CC(C)C)NC(=O)[C@H](CC(C)C)NC(=O)[C@H](CCCN=C(N)N)NC(=O)[C@H](CCC(N)=O)NC(=O)[C@H](CC(C)C)NC(=O)[C@H](CCCN=C(N)N)NC(=O)CNC(=O)[C@H](CCC(N)=O)NC(=O)[C@H](CC(C)C)NC(=O)CN)C(=O)N[C@@H](CC(C)C)C(=O)N[C@H](C(=O)N[C@@H](CCSC)C(=O)O)[C@@H](C)O` (H-GLQGRLQRLLQASGNHAPGILTM-OH), the Ratio is more than 280.
To `CC[C@H](C)[C@H](NC(=O)CNC(=O)[C@H](C)NC(=O)[C@@H]1CCCN1C(=O)[C@H](Cc1c[nH]cn1)NC(=O)[C@H](CC(N)=O)NC(=O)CNC(=O)[C@H](CO)NC(=O)[C@H](C)NC(=O)[C@H](CCC(N)=O)NC(=O)[C@H](CC(C)C)NC(=O)[C@H](CC(C)C)NC(=O)[C@H](CCCN=C(N)N)NC(=O)[C@H](CCC(N)=O)NC(=O)[C@H](CC(C)C)NC(=O)[C@H](CCCN=C(N)N)NC(=O)CNC(=O)[C@H](CCC(N)=O)NC(=O)[C@H](CC(C)C)NC(=O)CN)C(=O)N[C@@H](CC(C)C)C(=O)N[C@H](C(=O)N[C@@H](CCSC)C(=O)O)[C@@H](C)O` (H-GLQGRLQRLLQASGNHPAGILTM-OH) belongs more than 230.
For `CC[C@H](C)[C@H](NC(=O)CNC(=O)[C@H](C)NC(=O)[C@H](C)NC(=O)[C@H](Cc1c[nH]cn1)NC(=O)[C@H](CC(N)=O)NC(=O)CNC(=O)[C@H](CO)NC(=O)[C@H](C)NC(=O)[C@H](CCC(N)=O)NC(=O)[C@H](CC(C)C)NC(=O)[C@H](CC(C)C)NC(=O)[C@H](CCCN=C(N)N)NC(=O)[C@H](CCC(N)=O)NC(=O)[C@H](CC(C)C)NC(=O)[C@H](CCCN=C(N)N)NC(=O)CNC(=O)[C@H](CCC(N)=O)NC(=O)[C@@H]1CCCN1C(=O)CN)C(=O)N[C@@H](CC(C)C)C(=O)N[C@H](C(=O)N[C@@H](CCSC)C(=O)O)[C@@H](C)O` (H-GPQGRLQRLLQASGNHAAGILTM-OH), the Ratio was 28.3.
For `CC[C@H](C)[C@H](NC(=O)CNC(=O)[C@H](C)NC(=O)[C@H](C)NC(=O)[C@H](Cc1c[nH]cn1)NC(=O)[C@H](CC(N)=O)NC(=O)CNC(=O)[C@H](CO)NC(=O)[C@H](C)NC(=O)[C@H](CCC(N)=O)NC(=O)[C@H](CC(C)C)NC(=O)[C@H](CC(C)C)NC(=O)[C@H](CCCN=C(N)N)NC(=O)[C@H](CCC(N)=O)NC(=O)[C@H](CC(C)C)NC(=O)[C@H](CCCN=C(N)N)NC(=O)CNC(=O)[C@@H](N)CCC(N)=O)C(=O)N[C@@H](CC(C)C)C(=O)N[C@H](C(=O)N[C@@H](CCSC)C(=O)O)[C@@H](C)O` (H-QGRLQRLLQASGNHAAGILTM-OH), the Ratio turned out to be 18.2.
For `CC[C@H](C)[C@H](NC(=O)CNC(=O)[C@H](C)NC(=O)[C@H](C)NC(=O)[C@H](Cc1c[nH]cn1)NC(=O)[C@H](CC(N)=O)NC(=O)CNC(=O)[C@H](CO)NC(=O)[C@H](C)NC(=O)[C@H](CCC(N)=O)NC(=O)[C@H](CC(C)C)NC(=O)[C@H](CC(C)C)NC(=O)[C@H](CCCN=C(N)N)NC(=O)[C@H](CCC(N)=O)NC(=O)[C@H](CC(C)C)NC(=O)[C@@H](N)CCCN=C(N)N)C(=O)N[C@@H](CC(C)C)C(=O)N[C@H](C(=O)N[C@@H](CCSC)C(=O)O)[C@@H](C)O` (H-RLQRLLQASGNHAAGILTM-OH), the Ratio was more than 1750.
On to `CC[C@H](C)[C@H](NC(=O)CNC(=O)[C@H](C)NC(=O)[C@H](C)NC(=O)[C@H](Cc1c[nH]cn1)NC(=O)[C@H](CC(N)=O)NC(=O)CNC(=O)[C@H](C)NC(=O)CNC(=O)[C@H](Cc1c[nH]cn1)NC(=O)[C@H](CC(C)C)NC(=O)[C@H](CC(C)C)NC(=O)[C@H](CCC(=O)O)NC(=O)[C@H](Cc1ccc(O)cc1)NC(=O)[C@H](CC(C)C)NC(=O)[C@@H](N)CCCN=C(N)N)C(=O)N[C@@H](CC(C)C)C(=O)N[C@H](C(=O)N[C@@H](CC(C)C)C(=O)O)[C@@H](C)O` (H-RLYELLHGAGNHAAGILTL-OH), for which the Ratio amounted to 4.3.
For `CC[C@H](C)[C@H](NC(=O)CNC(=O)[C@H](C)NC(=O)[C@H](C)NC(=O)[C@H](Cc1c[nH]cn1)NC(=O)[C@H](CC(N)=O)NC(=O)CNC(=O)[C@H](C)NC(=O)CNC(=O)[C@H](Cc1c[nH]cn1)NC(=O)[C@H](CC(C)C)NC(=O)[C@H](CC(C)C)NC(=O)[C@H](CCC(=O)O)NC(=O)[C@H](Cc1ccc(O)cc1)NC(=O)[C@H](CC(C)C)NC(=O)[C@H](CCCN=C(N)N)NC(=O)[C@H](CS)NC(=O)[C@H](CO)NC(=O)[C@H](CS)NC(=O)[C@@H](NC(=O)[C@H](CCCCN)NC(=O)[C@H](CCC(N)=O)NC(=O)[C@@H](N)CCCN=C(N)N)[C@@H](C)O)C(=O)N[C@@H](CC(C)C)C(=O)N[C@H](C(=O)N[C@@H](CC(C)C)C(=O)O)[C@@H](C)O` (H-RQKTCSCRLYELLHGAGNHAAGILTL-OH), the Ratio came out at 2.3.
